Data from paper PMC7897990, “TriTOX: A novel Trichomonas vaginalis assay platform for high-throughput screening of compound libraries” (International Journal for Parasitology: Drugs and Drug …, 2021).
Read-outs that look alike come from different tables or passages of the source.

Legend:
[1] = system: Trichomonas vaginalis G3 trophozoites; conditions: for T.vaginalis_Absorbance_Rep1: replicate 1, raw absorbance; for T.vaginalis_Absorbance_Rep2: replicate 2, raw absorbance
[2] = system: nontumorigenic neonatal foreskin fibroblast (NFF) cell line
[3] = HTS, parasite screen at 1 µg/mL, replicate 1
[4] = HTS, parasite screen at 1 µg/mL
[5] = HTS, parasite screen at 1 µg/mL, replicate 2
[6] = parasite screen at 1 µg/mL, replicate 1
[7] = parasite screen at 1 µg/mL, replicate 2
[8] = NFF_NS1 screen at 5 µg/mL, NFF cells
[9] = HTS single concentration, parasite screen 1 µg/mL, replicate 1
[10] = HTS single concentration, parasite screen 1 µg/mL, replicate 2
[11] = NFF_NS1 screen 5 µg/mL, single concentration
[12] = HTS replicate 1, parasite screen 1 µg/mL
[13] = HTS replicate 2, parasite screen 1 µg/mL
[14] = NFF fibroblasts, single concentration 5 µg/mL
[15] = replicate 1, parasite screen at 1 µg/mL
[16] = replicate 2, parasite screen at 1 µg/mL

## C[C@H]1CC[C@H]2[C@@H](C=C[C@@H]3[C@H]4[C@@H](C)O[C@]5(O)[C@@H](CO)N(C)C(=O)[C@]45C(=O)[C@@]32C)C1 [Fusarisetin A]
[1]; [3]
  T.vaginalis_%inb_Rep1: 14.05%
[1]; [4]
  T.vaginalis_Absorbance_Rep1: 0.979
  T.vaginalis_Absorbance_Rep2: 0.869
[1]; [5]
  T.vaginalis_%inb_Rep2: 15.01%
[2]; NFF_NS1 screen at 5 µg/mL
  NFF_Activity: I (otherwise these were reported as inactive (I))

## CN(C)[C@@H]1C(O)=C(C(=O)NCN2CCCC2)C(=O)[C@@]2(O)C(O)=C3C(=O)c4c(O)cccc4[C@@](C)(O)[C@H]3C[C@@H]12 [BIA-R1460]
[1]; [6]
  T.vaginalis_%inb_Rep1: 13.95%
[1]; [7]
  T.vaginalis_%inb_Rep2: 12.12%
[2]; [8]
  NFF_Activity: I (otherwise these were reported as inactive (I))

## COc1ccc(C[C@H]2NC[C@H](O)[C@H]2OC(C)=O)cc1 [BIA-A1215]
[1]; [9]
  T.vaginalis_%inb_Rep1: 63.76%
[1]; [10]
  T.vaginalis_%inb_Rep2: 97.54%
[2]; [11]
  NFF_Activity: I (otherwise these were reported as inactive (I))

## CC[C@H](C)[C@H]1O[C@]2(C=C[C@@H]1C)C[C@@H]1C[C@@H](C/C=C(\C)[C@@H](O[C@H]3C[C@H](OC)[C@@H](O[C@H]4C[C@H](OC)[C@H](NC)[C@H](C)O4)[C@H](C)O3)[C@@H](C)/C=C/C=C3\CO[C@@H]4[C@H](O)C(C)=C[C@@H](C(=O)O1)[C@]34O)O2 [Emamectin B1a]
[1]; [3]
  T.vaginalis_%inb_Rep1: 15.19%
[1]; [4]
  T.vaginalis_Absorbance_Rep1: 0.991
  T.vaginalis_Absorbance_Rep2: 0.699
[1]; [5]
  T.vaginalis_%inb_Rep2: 5.71%
[2]; NFF_NS1 screen at 5 µg/mL
  NFF_Activity: A (active (A) compounds having >25% inhibitory activity)

## CC[C@H]1/C=C/C=C/C[C@@H](C)[C@H](O)[C@@](C)(O)C(=O)[C@@H](C)[C@H](O)[C@@H](C)C(=O)[C@@H](C)[C@H](O)[C@@H](C)/C=C/C(=O)O[C@@H]2[C@H](C)[C@H](CC1)O[C@@]1(O[C@@H](C[C@@H](C)O)[C@@H](C)CC1=O)[C@]2(C)O [Oligomycin E]
[1]; [12]
  T.vaginalis_%inb_Rep1: 14.66%
[1]; [13]
  T.vaginalis_%inb_Rep2: 15.07%
[2]
  NFF_Activity: I (key: active (A) compounds having >25% inhibitory activity; otherwise these were reported as inactive (I))

## CC[C@]1(C)C[C@@H](OC(=O)CSc2n[nH]c(N)n2)[C@]2(C)[C@H](C)CC[C@]3(CCC(=O)[C@H]32)[C@@H](C)[C@@H]1O [BIA-A1489]
[1]; [9]
  T.vaginalis_%inb_Rep1: 14.65%
[1]; [10]
  T.vaginalis_%inb_Rep2: 19.67%
[2]; [11]
  NFF_Activity: I (otherwise these were reported as inactive (I))

## C[C@H]1CCN2C[C@]34C[C@@]5(C(=O)Nc6c5ccc5c6OC=CC(C)(C)O5)C(C)(C)[C@@H]3C[C@]12C(=O)N4C [Paraherquamide E]
[1]; [12]
  T.vaginalis_%inb_Rep1: 16.63%
[1]; [13]
  T.vaginalis_%inb_Rep2: 15.01%
[2]; [14]
  NFF_Activity: I (otherwise these were reported as inactive (I))

## CCCCCCCCCCCC[C@@H](C(=O)O)[C@H](C)C(=O)O [BIA-R1904]
[1]; [6]
  T.vaginalis_%inb_Rep1: 13.79%
[1]; [7]
  T.vaginalis_%inb_Rep2: 5.71%
[2]; [8]
  NFF_Activity: I (otherwise these were reported as inactive (I))

## CC(=O)O[C@@H]1[C@@H]2O[C@H]2[C@@](C)(O)C(=O)[C@@H](C)C/C=C\[C@H]2[C@H](O)C(C)=C(C)[C@H]3[C@H](Cc4ccccc4)NC(=O)[C@@]123 [Epoxycytochalasin C, 19,20-]
[1]; [3]
  T.vaginalis_%inb_Rep1: 12.33%
[1]; [4]
  T.vaginalis_Absorbance_Rep1: 0.938
  T.vaginalis_Absorbance_Rep2: 0.844
[1]; [5]
  T.vaginalis_%inb_Rep2: 16.20%
[2]; NFF_NS1 screen at 5 µg/mL
  NFF_Activity: I (otherwise these were reported as inactive (I))

## CN[C@@H]1C[C@H]2O[C@@](C)([C@@H]1OC)n1c3ccccc3c3c4c(c5c6ccccc6n2c5c31)C(=O)N[C@H]4O [UCN-01]
[1]; [3]
  T.vaginalis_%inb_Rep1: 11.33%
[1]; [5]
  T.vaginalis_%inb_Rep2: 13.65%
[2]; NFF fibroblast screen at 5 µg/mL, A = active, I = inactive
  NFF_Activity: A (active (A) compounds having >25% inhibitory activity)

## C[N+]1(C)CCC2(c3cccc4c3NC3C4(C45CC[N+](C)(C)C4Nc4ccccc45)CC[N+]3(C)C)c3ccccc3NC21.[I-].[I-].[I-] (centres unmarked) [BIA-H1942]
[1]; [15]
  T.vaginalis_%inb_Rep1: 9.49%
[1]; [16]
  T.vaginalis_%inb_Rep2: 13.53%
[2]; NFF cells, screen at 5 µg/mL
  NFF_Activity: I (otherwise these were reported as inactive (I))

## COC(=O)C1(O)CC2OC1(C)n1c3ccccc3c3c4c(c5c6ccccc6n2c5c31)C(=O)NC4 (centres unmarked) [BIA-K1225]
[1]; [15]
  T.vaginalis_%inb_Rep1: 61.16%
[1]; [16]
  T.vaginalis_%inb_Rep2: 66.84%
[2]; NFF cells, screen at 5 µg/mL
  NFF_Activity: A (active (A) compounds having >25% inhibitory activity)

## Orfamide A
[1]; [12]
  T.vaginalis_%inb_Rep1: 9.99%
[1]; [13]
  T.vaginalis_%inb_Rep2: 10.90%
[2]; [14]
  NFF_Activity: I (otherwise these were reported as inactive (I))

## CC[C@H]1OC(=O)[C@H](C)[C@@H](O[C@H]2C[C@@](C)(OC)[C@@H](O)[C@H](C)O2)[C@H](C)[C@@H](O[C@@H]2O[C@H](C)C[C@H](N(C)C)[C@H]2O)[C@](C)(O)C[C@@H](C)C(=NO)[C@H](C)[C@@H](O)[C@]1(C)O [Erythromycin A oxime]
[1]; [3]
  T.vaginalis_%inb_Rep1: 3.82%
[1]; [4]
  T.vaginalis_Absorbance_Rep1: 0.78
  T.vaginalis_Absorbance_Rep2: 0.678
[1]; [5]
  T.vaginalis_%inb_Rep2: 4.19%
[2]; NFF_NS1 screen at 5 µg/mL
  NFF_Activity: I (otherwise these were reported as inactive (I))

## COc1cc(-c2ccc(O)cc2)c(OC)c(O)c1-c1ccc(O)cc1 [BIA-T1200]
[1]; [6]
  T.vaginalis_%inb_Rep1: 9.75%
[1]; [7]
  T.vaginalis_%inb_Rep2: 14.63%
[2]; [8]
  NFF_Activity: I (otherwise these were reported as inactive (I))

## O=c1cccc2n1C[C@H]1C[C@@H]2CN2CCCC[C@H]12 [BIA-A1939]
[1]; [9]
  T.vaginalis_%inb_Rep1: 7.92%
[1]; [10]
  T.vaginalis_%inb_Rep2: 14.14%
[2]; [11]
  NFF_Activity: I (otherwise these were reported as inactive (I))

## CCC1OC(=O)C(C)C(OC2CC(C)(OC)C(O)C(C)O2)C(C)C(OC2OC(C)CC(N(C)C)C2O)C2(C)CC(C)C3(O2)OC1(C)C(O)C3C (centres unmarked) [BIA-A1348]
[1]; [9]
  T.vaginalis_%inb_Rep1: 15.19%
[1]; [10]
  T.vaginalis_%inb_Rep2: 13.67%
[2]; [11]
  NFF_Activity: I (otherwise these were reported as inactive (I))

## [N-]=[N+]=NCC(=O)N[C@H](CO)[C@H](O)c1ccc([N+](=O)[O-])cc1 [BIA-A1485]
[1]; [9]
  T.vaginalis_%inb_Rep1: 12.55%
[1]; [10]
  T.vaginalis_%inb_Rep2: 16.12%
[2]; [11]
  NFF_Activity: I (otherwise these were reported as inactive (I))

## CO[C@@H]1C[C@H]2C=C[C@H]3[C@H]4O[C@]2(/C(C)=C\[C@@H](C)[C@@H]([C@@H](C)O)OC1=O)[C@@H]3[C@H](O)[C@@H](C)[C@H]4O [Nodusmicin]
[1]; [12]
  T.vaginalis_%inb_Rep1: 11.16%
[1]; [13]
  T.vaginalis_%inb_Rep2: 10.52%
[2]; [14]
  NFF_Activity: I (otherwise these were reported as inactive (I))

## O=C(N[C@H](COC(=O)[C@H](Cc1ccccc1)NC(=O)c1ccccc1)Cc1ccccc1)c1ccccc1 [BIA-A1643]
[1]; [9]
  T.vaginalis_%inb_Rep1: 13.09%
[1]; [10]
  T.vaginalis_%inb_Rep2: 15.04%
[2]; [11]
  NFF_Activity: I (otherwise these were reported as inactive (I))

## CC1OC(OC2C(CO)OC(OC3C(CO)OC(O)C(O)C3O)C(O)C2O)C(O)C(O)C1NC1C=C(CO)C(O)C(O)C1O (centres unmarked) [BIA-A1231]
[1]; [9]
  T.vaginalis_%inb_Rep1: 14.16%
[1]; [10]
  T.vaginalis_%inb_Rep2: 6.22%
[2]; [11]
  NFF_Activity: I (otherwise these were reported as inactive (I))

## Pladienolide B
[1]; [12]
  T.vaginalis_%inb_Rep1: 11.92%
[1]; [13]
  T.vaginalis_%inb_Rep2: 13.15%
[2]; [14]
  NFF_Activity: I (otherwise these were reported as inactive (I))

## CC[C@H](C)[C@H]1O[C@]2(CC[C@@H]1C)C[C@@H]1C[C@@H](C/C=C(\C)[C@@H](O)[C@@H](C)/C=C/C=C3\CO[C@@H]4[C@H](O)C(C)=C[C@@H](C(=O)O1)[C@]34O)O2 [BIA-I1151]
[1]; [15]
  T.vaginalis_%inb_Rep1: 12.98%
[1]; [16]
  T.vaginalis_%inb_Rep2: 12.38%
[2]; NFF cells, screen at 5 µg/mL
  NFF_Activity: I (otherwise these were reported as inactive (I))
